The source made the active and inactive calls. The rule behind the calls is not given here.
Columns and labels:
Leptothorax = test: Insecticidal activity against Leptothorax sp. assessed as number of dead ants at 0.5 mg after 6 to 24 hrs relative to control; type: functional
Culex pipiens molestus = test: Insecticidal activity against Culex pipiens molestus larvae at 10 to 50 mg/L after 6 to 24 hrs; type: functional, organism-based

| SMILES | Activity (Leptothorax) [%] | Activity (Culex pipiens molestus) |
| --- | --- | --- |
| CC1=C2CC[C@H](C)[C@@]23C(=O)O[C@H]1[C@@]12C(=O)O[C@H]3C(C)=C1CC[C@@H]2C [NEPETANUDONE] | 45 | inactive |
| CC1=C2CC[C@@H](C)[C@@]23C(=O)O[C@H]1[C@@]12C(=O)O[C@H]3C(C)=C1CC[C@@H]2C [NEPETAPARNONE] | 55 | inactive |
| C=C[C@]1(C)CCC2=C(CC[C@H]3[C@](C)(COC(=O)C(C)CC)CC[C@H](O)[C@]23C)[C@@H]1OC(C)=O (stereo partly specified) [PARNAPIMAROL] | 31 | inactive |

From ChEMBL document CHEMBL1150235, “Parnapimarol and nepetaparnone from Nepeta parnassica” (2008)
